Patent US4628059A, “Dopamine-β-hydroxylase inhibitors” (SmithKlein Beckman Corporation, priority 1985, dated 1986)
Like-named read-outs stand apart in the source and are kept apart here.

Key:
[1] = tested on: DBH; conditions: literature, cited from earlier work
[2] = target: T1, dopamine-β-hydroxylase (DBH) (Bos taurus, UniProt P15101); assay: in vitro DBH inhibition (conversion of tyramine to octopamine, spectrophotometric at 330 nm); type: biochemical
T1 sequence (P15101 1-610): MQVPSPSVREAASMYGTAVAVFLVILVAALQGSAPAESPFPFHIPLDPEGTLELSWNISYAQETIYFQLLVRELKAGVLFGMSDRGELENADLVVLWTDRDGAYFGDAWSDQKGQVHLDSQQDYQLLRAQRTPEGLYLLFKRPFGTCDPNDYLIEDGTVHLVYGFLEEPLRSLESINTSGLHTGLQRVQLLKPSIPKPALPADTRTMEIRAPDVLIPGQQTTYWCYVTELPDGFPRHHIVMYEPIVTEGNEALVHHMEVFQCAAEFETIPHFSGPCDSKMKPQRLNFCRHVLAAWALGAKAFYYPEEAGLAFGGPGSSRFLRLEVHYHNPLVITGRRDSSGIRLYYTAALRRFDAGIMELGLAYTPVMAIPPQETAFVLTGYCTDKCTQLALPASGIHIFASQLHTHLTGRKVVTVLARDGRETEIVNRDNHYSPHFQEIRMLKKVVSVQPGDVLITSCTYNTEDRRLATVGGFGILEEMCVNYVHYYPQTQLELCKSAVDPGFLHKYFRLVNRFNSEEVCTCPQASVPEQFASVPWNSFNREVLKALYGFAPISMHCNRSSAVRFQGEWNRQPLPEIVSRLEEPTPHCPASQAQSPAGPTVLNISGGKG
Method: Because the compounds of Formulae I and II inhibit DBH activity, they have therapeutic value as diuretic, natriuretic, cardiotonic, antihypertensive and vasodilator agents, as well as antiulcerogenic agents. Listed in Table I are the compounds of the invention and compounds included in the pharmaceutical compositions of the invention and useful in the methods of the invention that were tested for in vitro DBH inhibition by a standard procedure for assaying conversion of tyramine to octopamine in the presence of DBH. J. J. Pisano, et al., Biochem. Biophys. Acta; 43, 566-568 (1960). Octopamine was assayed following sodium periodate oxidation to p-hydroxybenzaldehyde by measuring spectrophotometric absorbance at 330 nm. In Table I, inhibition is given in molar concentration of compound at which DBH activity was halved (IC50). Melting points (mp) are given in °C.

[3] = tested on: peripheral dopamine (DA) and norepinephrine (NE) levels; assay: effect in vivo on peripheral dopamine (DA) and norepinephrine (NE) levels; parameters: species or system spontaneously hypertensive rats; conditions: oral, two doses approx. 18 h apart, sacrificed about 2 h after second dose, fusaric acid 50 mg/kg; for DA / NE: average of groups of five; for DA: control (saline) 0.314; for DA / DA/NE Ratio: * p <.001 for both compounds; for NE: control (saline) 9.98; for DA/NE Ratio: control (saline) 0.0314
Method: One of the compounds of the invention was tested for its effect in vivo on peripheral dopamine (DA) and norepinephrine (NE) levels substantially by the procedure of DaPrada and Zurcher, Life Sciences, 19, 1161, (1976). Groups of five spontaneously hypertensive rats were dosed orally, twice, the second dose approximately 18 hours after the first, and were sacrificed about 2 hours after the second dose.

[4] = tested on: spontaneously hypertensive rats; assay: mean arterial blood pressure in spontaneously hypertensive rats; type: in vivo; conditions: 50 mg/kg intraperitoneally, monitored for 260 minutes, tail artery cannulae
Method: Further, spontaneously hypertensive rats were dosed with a suspension or solution of 4-(3'-fluorobenzyl)-1,2,4-triazole-3-thiol at a dose of 50 mg/kg intraperitoneally, and mean arterial blood pressure was monitored for 260 minutes using indwelling cannulae positioned in the tail arteries.

[5] = literature; cited from earlier work
[6] = Ehrreich et al., literature; cited from earlier work
[7] = in vitro, tyramine to octopamine conversion, read-out: IC50 (molar concentration of compound at which DBH activity was halved)

| IC50 [2, 7] [µM] | Molecule | DBH inhibition (in words) [1] | other results |
| --- | --- | --- | --- |
| – | O=C(O)c1ccc(CCC(Br)CBr)cn1 (stereo not shown) [5-(3,4-dibromobutyl)picolinic acid] | DBH inhibitors | – |
| 2.7 | Fc1cccc(Cn2cnnc2S)c1 [4-(3'-fluorobenzyl)-1,2,4-triazole-3-thiol] | – | DA [3]: 0.958 µg/g; NE [3]: 8.46 µg/g; DA/NE Ratio [3]: 0.114; mean arterial blood pressure reduction compared to vehicle-treated controls [4]: statistically significant blood pressure reductions at 60, 140, 160, 200, and 240 minutes |
| – | phenylpicolinic acid | – | DBH inhibitory activity relative to fusaric acid ([1]; Runti et al.): twice the inhibitory activity of fusaric acid |
| 1 | Fc1cc(F)cc(Cn2cnnc2S)c1 [4-(3',5'-difluorobenzyl)-1,2,4-triazole-3-thiol] | – | – |
| – | CN(C)C(=S)SCc1ccc(C(=O)O)nc1 [5-(dimethyldithiocarbamoylmethyl)picolinic acid] | DBH inhibitors | – |
| – | Nc1ccc(C(=O)O)nc1 [5-aminopicolinic acid] | inhibit DBH | – |
| – | CCCCc1ccc(C(=O)O)nc1 [Fusaric acid] | – | IC50 [2]: 0.8 µM; DA [3]: 0.715 µg/g; NE [3]: 8.19 µg/g; DA/NE Ratio [3]: 0.0875; toxicity [5]: hepatotoxic |
| 19 | COc1c(F)cc(Cn2cnnc2S)cc1F [4-(3',5'-difluoro-4'-methoxybenzyl)-1,2,4-triazole-3-thiol] | – | – |
| – | NNc1ccc(C(=O)O)nc1 [5-hydrazinopicolinic acid] | inhibit DBH | – |
| – | NNCc1ccccc1 [benzylhydrazine] | apparently act as competitive inhibitors | – |
| 24 | Sc1nncn1Cc1ccccc1 [4-benzyl-1,2,4-triazole-3-thiol] | – | – |
| – | CCCC(=O)c1ccc(C(=O)O)nc1 [5-butyroylpicolinic acid] | inhibit DBH | – |
| – | O=C(O)c1ccc(CCCCCl)cn1 [5-(4-chlorobutyl)picolinic acid] | inhibit DBH | – |
| – | CCCCc1ccc(C(N)=O)nc1 [Bupicomide, 5-(n-butyl)picolinamine] | DBH inhibitor | antihypertensive activity [6]: antihypertensive activity |
| – | NOCc1ccccc1 [Benzyloxyamine, benzyloxyamine] | apparently act as competitive inhibitors | – |
| 0.02 | Oc1c(F)cc(Cn2cnnc2S)cc1F [4-(3',5'-difluoro-4'-hydroxybenzyl)-1,2,4-triazole-3-thiol] | – | – |
